According to ChEMBL document CHEMBL1275568, “Comparison of disk diffusion and agar dilution methods for erythromycin, ciprofloxacin, and tetracycline susceptibility testing of Campylobacter coli and for tetracycline susceptibility testing of Campylobacter jejuni subsp. jejuni” (2008):

What was measured:
Type in all cases: functional
[1] = tested on: Campylobacter coli; test: Antimicrobial activity against Campylobacter coli by disk diffusion method
[2] = tested on: Campylobacter jejuni; test: Antimicrobial activity against Campylobacter jejuni by disk diffusion method
[3] = tested on: Campylobacter coli; test: Antimicrobial activity against Campylobacter coli assessed as resistant rate

| SMILES | diameter of the inhibition zone (DIZ) [1] | diameter of the inhibition zone (DIZ) [2] | Activity [3] [%] |
| --- | --- | --- | --- |
| O=C(O)c1cn(C2CC2)c2cc(N3CCNCC3)c(F)cc2c1=O [CIPROFLOXACIN] | >=20 mm | – | – |
| CC[C@H]1OC(=O)[C@H](C)[C@@H](O[C@H]2C[C@@](C)(OC)[C@@H](O)[C@H](C)O2)[C@H](C)[C@@H](O[C@@H]2O[C@H](C)C[C@H](N(C)C)[C@H]2O)[C@](C)(O)C[C@@H](C)C(=O)[C@H](C)[C@@H](O)[C@]1(C)O [ERYTHROMYCIN] | >=15 mm | – | – |
| CN(C)[C@@H]1C(O)=C(C(N)=O)C(=O)[C@@]2(O)C(O)=C3C(=O)c4c(O)cccc4[C@@](C)(O)[C@H]3C[C@@H]12 [TETRACYCLINE] | >=26 mm | <=20 mm | 48 |
